How the values were obtained:
Adenosine receptor A2a [1] = molecular target: T1, Adenosine receptor A2a (Homo sapiens, UniProt P29274); assay: Displacement of [3H]ZM241385 from stabilized human adenosine receptor A2a expressed in HEK293 cells followed by receptor capturing on Biocore chips by SPR method
Adenosine receptor A2a [2] = molecular target: T1, Adenosine receptor A2a; assay: Displacement of [3H]ZM241385 from wild type human adenosine receptor A2a expressed in HEK293 cells

T1 sequence (P29274 whole entry, looked up): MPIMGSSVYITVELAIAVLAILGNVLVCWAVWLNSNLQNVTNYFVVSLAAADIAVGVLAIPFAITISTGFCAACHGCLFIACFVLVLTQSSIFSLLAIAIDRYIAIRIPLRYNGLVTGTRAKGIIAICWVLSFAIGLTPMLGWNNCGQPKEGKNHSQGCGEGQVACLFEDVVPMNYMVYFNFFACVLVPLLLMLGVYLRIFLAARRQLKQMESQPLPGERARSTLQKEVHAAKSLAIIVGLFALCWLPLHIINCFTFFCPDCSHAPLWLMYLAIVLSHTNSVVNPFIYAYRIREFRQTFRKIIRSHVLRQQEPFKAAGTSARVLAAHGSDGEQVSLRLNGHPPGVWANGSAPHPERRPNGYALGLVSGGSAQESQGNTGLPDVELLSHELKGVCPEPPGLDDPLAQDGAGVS

SMILES | pKd (Adenosine receptor A2a [1]) | pKi (Adenosine receptor A2a [2])
Nc1nc(-c2ccccc2O)nc(N2Cc3ccc(F)cc3C2)n1 | 6 | 7.9
COCCOc1ccc(N2CCN(CCn3ncc4c3nc(N)n3nc(-c5ccco5)nc43)CC2)cc1 [PRELADENANT] | 9.5 | 8.8
CN1CCN(C(=O)c2cccc(-c3nc(N)nc(-c4ccccc4O)n3)c2)CC1 | 7.9 | 9
